# Data published in US20160137746A1, “METHODS FOR TREATING HIGH CARDIOVASCULAR RISK PATIENTS WITH HYPERCHOLESTEROLEMIA” (Sanofi Biotechnology, priority 2014, published 2016).
# Values joined by “and” are separate entries in the source; they are usually repeats but may differ in a detail not shown here. Equal entries are not always repeated.
# Test system: high cardiovascular risk patients with hypercholesterolemia
# Assay: ODYSSEY LONG TERM: lipid efficacy of alirocumab 150 mg Q2W vs placebo
# Assay type: in vivo, human
# Conditions: for Percent change from baseline in calculated LDL-C at week 24 (%), LS means (SE) / Percent change from baseline in calculated LDL-C at week 24, LS mean difference (SE) vs placebo / Calculated LDL-C percent change from baseline, LS mean (SE): ITT population; for Percent change from baseline in calculated LDL-C at week 24 (%), LS means (SE) / Percent change from baseline in calculated LDL-C at week 24, LS mean difference (SE) vs placebo: 150 Q2W; for Calculated LDL-C percent change from baseline, LS mean (SE): MMRM, alirocumab 150 Q2W
# Method: Patients were stratified according to heFH population, prior history of MI or ischemic stroke, statin treatment and geographic region. Patients at high cardiovascular risk were defined as 1) having heFH (who may or may not have CHD/CHD risk equivalents) or 2) no prior diagnosis of heFH but having hypercholesterolemia together with established CHD or CHD risk equivalents.
# Primary analyses of efficacy endpoints were conducted using an ITT approach (based on the ITT population defined above), including all lipid data, regardless of whether the patient was continuing therapy or not. This corresponds to ITT estimands, defined for primary and key secondary endpoints. In addition, analyses were also conducted using an on-treatment approach (based on the mITT population defined above), including lipid data collected during the efficacy treatment period. This corresponds to on-treatment estimands of key secondary endpoints.
# With regards to the primary efficacy analysis (ITT approach), the percent change in calculated LDL-C from baseline to Week 24 was analyzed using a mixed-effect model with repeated measures (MMRM) approach. All post-baseline data available from Week 4 to Week 52 analysis windows were used and missing data were accounted for by the MMRM. […] This model provided baseline adjusted least-squares means (LSmeans) estimates at Week 24 for both treatment groups with their corresponding SEs and 95% confidence intervals.
# Continuous secondary variables anticipated to have a normal distribution (i.e., lipids other than TGs and Lp(a)) were analyzed using the same MMRM model as for the primary endpoint. […] Combined estimate for mean in both treatment groups, as well as the differences of these estimates, with their corresponding SEs, 95% Cls and p-value were provided (through SAS MIANALYZE procedure).
# Binary secondary efficacy endpoints were analyzed using multiple imputation approach for handling of missing values followed by stratified logistic regression with treatment group as main effect and corresponding baseline value(s) as covariate, stratified by randomization factors (as per IVRS). Combined estimates of odds ratio versus placebo, 95% CI, and p-value were provided (through SAS MIANALYZE procedure).
# [1] = On-treatment analysis, 150 Q2W (N = 1523)
# [2] = On-treatment analysis, 150 Q2W (N = 1523), combined estimate for adjusted mean (SE)
# [3] = Pattern Mixture Model sensitivity analysis, 150 Q2W (N = 1523)
# [4] = Week 24, free PCSK9 levels at or above the median
# [5] = Week 24, free PCSK9 levels below the median
substance,measurement,setting,value
"Alirocumab: human anti-PCSK9 antibody; HCVR SEQ ID NO:1, LCVR SEQ ID NO:6; CDRs SEQ ID NOs 2/3/4/7/8/10","Percent change from baseline in calculated LDL-C at week 24 (%), LS means (SE)",HeFH population (271 patients),−56.3 (1.9) %
same,"Percent change from baseline in calculated LDL-C at week 24, LS mean difference (SE) vs placebo",HeFH population,−63.2 (2.9) %
same,"Calculated LDL-C percent change, LS mean difference vs placebo","ITT, Week 24",−61.9%
same,"Calculated LDL-C, LS mean percent change from baseline","ITT, Week 24",−61.0%
same,"Measured LDL-C, LS mean percent change from baseline","ITT, Week 24",−61.3%
same,"Very high CV risk or high CV risk patients who reached calculated LDL-C <70 mg/dL or <100 mg/dL, respectively","ITT, Week 24",80.7%
same,Proportion of patients reaching calculated LDL-C <70 mg/dL,"ITT, Week 24, listed as alirocumab",79.3% and 79%
same,"Percent change from baseline in calculated LDL-C at week 24 (%), LS means (SE)",Non-HeFH population (1259 patients),−62.1 (0.8) %
same,"Percent change from baseline in calculated LDL-C at week 24, LS mean difference (SE) vs placebo",Non-HeFH population,−61.5 (1.4) %
same,"Apo A1, LS mean (SE) change from baseline to Week 24 (%)",[1],4.2 (0.4) %
same,"Apo A1, LS mean difference (SE) vs placebo, percent change from baseline at Week 24",[1],2.9 (0.7) %
same,"Apo B, LS mean (SE) change from baseline to Week 24 (%)",[1],−54.3 (0.7) %
same,"Apo B, LS mean difference (SE) vs placebo, percent change from baseline at Week 24",[1],−55.5 (1.2) %
same,"Calculated LDL-C, LS mean (SE) change from baseline to Week 24 (%)",[1],−62.8 (0.7) %
same,"Calculated LDL-C, LS mean difference (SE) vs placebo, percent change from baseline at Week 24",[1],−63.5 (1.2) %
same,"HDL-C, LS mean (SE) change from baseline to Week 24 (%)",[1],4.2 (0.4) %
same,"HDL-C, LS mean difference (SE) vs placebo, percent change from baseline at Week 24",[1],4.9 (0.7) %
same,"Non-HDL-C, LS mean (SE) change from baseline to Week 24 (%)",[1],−53.1 (0.6) %
same,"Non-HDL-C, LS mean difference (SE) vs placebo, percent change from baseline at Week 24",[1],−53.7 (1.0) %
same,"Total cholesterol, LS mean (SE) change from baseline to Week 24 (%)",[1],−38.8 (0.5) %
same,"Total cholesterol, LS mean difference (SE) vs placebo, percent change from baseline at Week 24",[1],−38.4 (0.8) %
same,"Lipoprotein (a), LS mean difference (SE) vs placebo, percent change from baseline at Week 24",[2],−26.3 (1.3) %
same,"Lipoprotein (a), change from baseline to Week 24 (%)",[2],−30.2 (0.7) %
same,"Triglycerides, LS mean difference (SE) vs placebo, percent change from baseline at Week 24",[2],−17.2 (1.4) %
same,"Triglycerides, change from baseline to Week 24 (%)",[2],−15.8 (0.8) %
same,"Calculated LDL-C percent change, LS mean difference vs placebo","On-treatment, Week 24",−63.5%
same,Proportion of patients reaching calculated LDL-C <70 mg/dL,"On-treatment, Week 24",81.2%
same,"Very high CV risk or high CV risk patients who reached calculated LDL-C <70 mg/dL or <100 mg/dL, respectively","On-treatment, Week 24",82.8%
same,"Calculated LDL-C, LS mean (SE) change from baseline to Week 24 (%)",[3],−57.8 (0.8) %
same,"Calculated LDL-C, LS mean difference (SE) vs placebo, percent change from baseline at Week 24",[3],−58.5 (1.3) %
same,"Calculated LDL-C percent change from baseline, LS mean (SE)",Week 4,−64.8%
same,"Calculated LDL-C percent change from baseline, LS mean (SE)",Week 8,−65.8%
same,"Apo-B - Percent change from baseline to Week 12, LS mean difference vs. placebo","Week 12, ITT",placebo of −56%
same,"Apolipoprotein A1 - Percent change from baseline to Week 12, LS mean difference vs. placebo","Week 12, ITT",placebo of 4%
same,"Calculated LDL-C - Percent change from baseline to Week 12, LS mean difference vs. placebo","Week 12, ITT",placebo of −64.8%
same,"Fasting TGs - Percent change from baseline to Week 12, combined estimate for adjusted mean difference vs. placebo","Week 12, ITT",vs. placebo of −17.9%
same,"HDL-C - Percent change from baseline to Week 12, LS mean difference vs. placebo","Week 12, ITT",placebo of 5.6%
same,"Lp(a) - Percent change from baseline to Week 12, combined estimate for adjusted mean difference vs. placebo","Week 12, ITT",vs. placebo of −25.1%
same,"Non-HDL-C - Percent change from baseline to Week 12, LS mean difference vs. placebo","Week 12, ITT",placebo of −54.6%
same,"Total-C - Percent change from baseline to Week 12, LS mean difference vs. placebo","Week 12, ITT",placebo of −39%
same,"Calculated LDL-C percent change from baseline, LS mean (SE)",Week 12,−63.3%
same,"Calculated LDL-C - Percent change from baseline to Week 12, LS mean difference vs. placebo","Week 12, On-treatment",placebo of −65.5%
same,"Calculated LDL-C percent change from baseline, LS mean (SE)",Week 16,−64.5%
same,"Calculated LDL-C percent change, LS mean difference vs placebo",[4],−66.0%
same,"Calculated LDL-C, LS mean percent change from baseline",[4],−62.7%
same,"Calculated LDL-C percent change, LS mean difference vs placebo",[5],−58.0%
same,"Calculated LDL-C, LS mean percent change from baseline",[5],−59.4%
same,"Calculated LDL-C percent change, LS mean difference vs placebo","Week 24, men",−64.7%
